Test results taken from US7371720B2, “Cationic peptides of the phylloseptin family isolated from the skin secretion of Phyllomedusa hypochondrialis” (Empressa Brasileira de Pesquisa Agropecuaria - Embrapa, priority 2001, dated 2008).
Peptide text beside a SMILES is read from it.

Legend:
Assay type in all cases: cell-based
human red blood cells = assay: Hemolysis assay
Description: Human erythrocytes (blood type O^−) from a healthy person were freshly prepared prior to each experiment. Hemolytic activity was assayed as described by Aboudy etal (Aboudy, Y., Mendelson, E., Shalit, I., Bessalle, R., Fridikin, M. 1994. Int. J. Peptide Protein Res. 43, 573-582.) with minor modifications. Three milliliters of freshly prepared erythrocytes (for methodology see Gibson, B. W., Tang, D., Mandrell, R., Kelly, M. and Spindel, E. R. 1991. J. Biol. Chem. 266, 23103-23111.21) was washed with isotonic phosphate-buffered saline (PBS), pH 7.4, until the color of the supernatant turned clear. The washed erythrocytes were then diluted to a final volume of 20 ml in the same buffer. Aliquots of cell suspentions (190 μl) containing samples (10 μl) were serially diluted in PBS, incubated at 37° C. for 30 min and then centrifuged at 4000×g for 5 min; 100 μl of supernatant was taken, diluted to 1.0 ml with PBS, and monitored at 567 nm. The relative optical density, as compared with that of the cell suspension treated with 0.2% Triton X-100, was defined as % hemolysis.
The hemolytic activity of Phylloseptin I and II was tested at different concentrations.

[1] = system: Pseudomonas aeruginosa wt; conditions: Pseudomonas aeruginosa wt (Brazilian strain); 20 h, 37° C., TSB; 100% growth inhibition
Description: (§1) The microorganisms Escherichia coli ATTC 25922, Pseudomonas aeroginosa ATTC 27853, Staphylococcus aureus ATTC 25923 and Enterococcus faecalis ATTC 29212 and a Brazilian strain of P. aeroginosa were used for the anti-microbial assay
(§2) The microorganisms were cultured in stationary culture at 37° C. Bacteria were grown in Tryptic Soy Broth (TSB). The bioassays were performed by liquid growth inhibition assay lawn as described by Bulet et al (Bulet, P., Dimarcq, J. L., Hetru, C., Lagueux, M., Charlet, M., Hegy, G., VanDorsselaer, A. and Hoffmann, J. A. 1993. J. Biol. Chem. 268, 14893-14897). Molecules of Phylloseptin I were dissolved in sterile distilled and deionized water and diluted 8-fold in TSB (OXIOD England) broth. Various concentrations of PSI solution were tested, being the highest 128 μg/ml. The initial inoculum was approximately 1×10^5 colony forming units (CFU)/ml and limit of detection was 10^2 CFU/ml. The final volume was 250 μl (25 μl of the peptide test in water, 25 μl of the inoculum in TSB, and 200 μl of TSB broth). The minimal inhibitory concentration (MIC) was measured for turbidity (OD at 595 nm) 20 h after all microorganisms were grown in stationary culture at 37° C. The lowest concentration of the peptide in which no growth occurred was defined as the MIC.
(§3) The minimal inhibitory concentrations (MICs) of the isolated Phylloseptin I against several Gram-positive and Gram-negative bacteria were determined as described by Park et al (Park, C. B., Kim, M. S., and Kim, S. C. 1996. 218 Biochem. Biophys. Res. Commun. 408-413.). […] That is, the minimal inhibitory concentration was defined as the peptide concentration which produces 100% of microorganism growth inhibition after 20 h incubation in culture media.

[2] = system: Pseudomonas aeroginosa ATTC 27853; conditions: Pseudomonas aeruginosa ATTC; 20 h, 37° C., TSB; 100% growth inhibition
Description: as §1, §2, §3

[3] = system: Escherichia coli ATTC 25922; conditions: 20 h, 37° C., TSB, 100% growth inhibition
Description: as §1, §2, §3

[4] = system: Enterococcus faecalis ATTC 29212; conditions: 20 h, 37° C., TSB, 100% growth inhibition
Description: as §1, §2, §3

[5] = system: Staphylococcus aureus ATTC 25923; conditions: Staphilococcus aureus ATTC; 20 h, 37° C., TSB; 100% growth inhibition
Description: as §1, §2, §3

Row | Compound | Minimal Inhibitory concentration [1] | Minimal Inhibitory concentration [2] | Minimal Inhibitory concentration [3] | Minimal Inhibitory concentration [4] | Minimal Inhibitory concentration [5] | also measured
1 | CC[C@H](C)[C@H](NC(=O)[C@H](C)NC(=O)[C@H](Cc1c[nH]cn1)NC(=O)[C@@H]1CCCN1C(=O)[C@@H](NC(=O)[C@H](CC(C)C)NC(=O)[C@H](CO)NC(=O)[C@H](CC(C)C)NC(=O)[C@@H](N)Cc1ccccc1)[C@@H](C)CC)C(=O)N[C@@H](CC(N)=O)C(=O)N[C@@H](C)C(=O)N[C@H](C(=O)N[C@@H](CO)C(=O)N[C@H](C(=O)N[C@@H](CC(C)C)C(=O)N[C@H](C(=O)N[C@@H](Cc1c[nH]cn1)C(=O)N[C@@H](Cc1c[nH]cn1)C(=O)N[C@@H](Cc1ccccc1)C(=O)O)C(C)C)[C@@H](C)O)C(C)C [PS II, Phe Leu Ser Leu Ile Pro His Ala Ile Asn Ala Val Ser Thr Leu Val His His Phe] (H-FLSLIPHAINAVSTLVHHF-OH) | – | – | – | – | – | % Hemolysis of human red blood cells (human red blood cells; red cells of human, 1 μg/mL): 0.00%; % Hemolysis of human red blood cells (human red blood cells; red cells of human, 2 μg/mL): 0.00%; % Hemolysis of human red blood cells (human red blood cells; red cells of human, 4 μg/mL): 0.10%; % Hemolysis of human red blood cells (human red blood cells; red cells of human, 8 μg/mL): 0.28%; % Hemolysis of human red blood cells (human red blood cells; red cells of human, 16 μg/mL): 0.70%; % Hemolysis of human red blood cells (human red blood cells; red cells of human, 32 μg/mL): 0.80%; % Hemolysis of human red blood cells (human red blood cells; red cells of human, 64 μg/mL): 1.05%; % Hemolysis of human red blood cells (human red blood cells; red cells of human, 128 μg/mL): 2.05%
2 | Gentamicyn | 64 µg/mL | 64 µg/mL | 64 µg/mL | – | – | –
3 | CC1(C)S[C@@H]2[C@H](NC(=O)[C@H](N)c3ccccc3)C(=O)N2[C@H]1C(=O)O [Amplicilyn] | – | – | 64 µg/mL | 128 µg/mL | – | –
4 | Polimixyn B | 16 µg/mL | 16 µg/mL | 64 µg/mL | – | – | –
5 | CC[C@H](C)[C@H](NC(=O)[C@H](C)NC(=O)[C@H](CO)NC(=O)[C@@H](NC(=O)[C@H](C)NC(=O)[C@H](CC(N)=O)NC(=O)[C@@H](NC(=O)[C@H](C)NC(=O)[C@H](Cc1c[nH]cn1)NC(=O)[C@@H]1CCCN1C(=O)[C@@H](NC(=O)[C@H](CC(C)C)NC(=O)[C@H](CO)NC(=O)[C@H](CC(C)C)NC(=O)[C@@H](N)Cc1ccccc1)[C@@H](C)CC)[C@@H](C)CC)C(C)C)C(=O)N[C@@H](C)C(=O)N[C@@H](CCCCN)C(=O)N[C@@H](Cc1c[nH]cn1)C(=O)N[C@@H](CC(N)=O)C(=O)O [PS I, Phe Leu Ser Leu Ile Pro His Ala Ile Asn Ala Val Ser Ala Ile Ala Lys His Asn] (H-FLSLIPHAINAVSAIAKHN-OH) | 6 µg/mL | 8 µg/mL | 16 µg/mL | 8 µg/mL | 16 µg/mL | % Hemolysis of human red blood cells (human red blood cells; 1 μg/mL (0.496 μM), 37° C., 30 min, relative to 0.2% Triton X-100): 0.00%; % Hemolysis of human red blood cells (human red blood cells; 2 μg/mL (0.990 μM), 37° C., 30 min, relative to 0.2% Triton X-100): 0.00%; % Hemolysis of human red blood cells (human red blood cells; 4 μg/mL (1.980 μM), 37° C., 30 min, relative to 0.2% Triton X-100): 0.00%; % Hemolysis of human red blood cells (human red blood cells; 8 μg/mL (3.968 μM), 37° C., 30 min, relative to 0.2% Triton X-100): 0.30%; % Hemolysis of human red blood cells (human red blood cells; 16 μg/mL (7.937 μM), 37° C., 30 min, relative to 0.2% Triton X-100): 0.57%; % Hemolysis of human red blood cells (human red blood cells; 32 μg/mL (15.873 μM), 37° C., 30 min, relative to 0.2% Triton X-100): 0.60%; % Hemolysis of human red blood cells (human red blood cells; 64 μg/mL (31.746 μM), 37° C., 30 min, relative to 0.2% Triton X-100): 0.98%; % Hemolysis of human red blood cells (human red blood cells; 128 μg/mL (63.492 μM), 37° C., 30 min, relative to 0.2% Triton X-100): 1.98%
6 | O=C(N[C@H](CO)[C@H](O)c1ccc([N+](=O)[O-])cc1)C(Cl)Cl [Chloranfenicol] | – | – | 32 µg/mL | 32 µg/mL | 32 µg/mL | –
